Measurements from ChEMBL document CHEMBL1126981, “Resistance of the 2,2,2-trifluoroethoxy aryl moiety to the cytochrome P-450 metabolism in rat liver microsomes” (Bioorg Med Chem Lett, 1993).

Organism: Rattus norvegicus
Experiment: Inhibition of deethylase activity upon incubation with liver microsomes from phenobarbital induced rats
Type: functional

Row | IC50 | Compound
1 | 100 µM | CC(=O)Nc1ccc(OCC(F)(F)F)cc1
2 | 230 µM | O=c1ccc2ccc(OCC(F)(F)F)cc2o1
